Test results: US9593108B2, “Compounds and methods for antiviral treatment” (PTC Therapeutics, Inc., priority 2009, dated 2017)

Experiments:
[1] = tested on: HCV replicon RNA (GenBank Accession No. AJ242654); experiment: HCV Replicon Assay (replicon RNA reduction and/or Fluc reporter signal); assay type: cell-based, Hepatitis C virus; settings: Hepatitis C virus, 72 h, replicon-containing cells cultured with test compound for up to 3 days
Excerpt: The lack of reliable and readily accessible cell-culture and small animal models permissive for HCV replication has limited the development of new anti-HCV agents. Self-replicating subgenomic HCV systems, termed HCV replicons, have been described and have been widely used to assess the efficacy of anti-HCV inhibitors (see Blight K J, et al., 2000, Efficient initiation of HCV RNA replication in cell culture. Science 290:1972-1974; Blight K J, et al., 2002, Highly permissive cell lines for subgenomic and genomic hepatitis C virus RNA replication. J Virol 76:13001-13014; Ikeda M, et al., 2002. Selectable subgenomic and genome-length dicistronic RNAs derived from an infectious molecular clone of the HCV-N strain of hepatitis C virus replicate efficiently in cultured Huh7 cells. J Virol 76:2997-3006; Lohmann V, et al., 1999, Replication of subgenomic hepatitis C virus RNAs in a hepatoma cell line. Science 285:110-113; Pietschmann T, et al., 2002, Persistent and transient replication of full-length hepatitis C virus genomes in cell culture. J Virol 76:4008-4021; and, Pietschmann T, et al., 2001, Characterization of cell lines carrying self-replicating hepatitis C virus RNAs. J Virol 75:1252-1264).
As described in U.S. Pat. No. 6,630,343, HCV inhibitors are analyzed in the bicistronic replicon by quantitating replicon RNA (GenBank Accession No. AJ242654) reduction and/or the Fluc reporter signal. Replicon-containing cells may be cultured with a test compound of the present invention for up to 3 days. Interferon (IFN) is used as a positive control. In general, the replicon IC50 values shown in Table 1 represent IC50 values determined by replicon RNA reduction.

Structure (SMILES)	IC50 [1]	melting point
CC(C)NS(=O)(=O)c1ccc(-c2c(C#N)c3cc(Cl)cnc3n2CC2CC2)cc1 [Cpd 1, 4-[5-chloro-3-cyano-1-(cyclopropylmethyl)-1H-pyrrolo[2,3-b]pyridin-2-yl]-N-(propan-2-yl)benzenesulfonamide]	< 500 nM	113 to 116 °C
COc1cnc2c(c1)c(C#N)c(-c1ccc(S(=O)(=O)NC(C)C)cc1)n2CC1CC1 [Cpd 2, 4-[3-cyano-1-(cyclopropylmethyl)-5-methoxy-1H-pyrrolo[2,3-b]pyridin-2-yl]-N-(propan-2-yl)benzenesulfonamide]	< 500 nM	151 to 153 °C
COc1ccc2c(n1)c(C#N)c(-c1ccc(NS(=O)(=O)C(C)C)cc1)n2CC1CC1 [Cpd 3, N-{4-[3-cyano-1-(cyclopropylmethyl)-5-methoxy-1H-pyrrolo[3,2-b]pyridin-2-yl]phenyl}propane-2-sulfonamide]	< 500 nM	230 to 232 °C
CC(C)NS(=O)(=O)c1ccc(-c2c(C#N)c3cc(F)cnc3n2CC2CC2)cc1 [Cpd 4, 4-[3-cyano-1-(cyclopropylmethyl)-5-fluoro-1H-pyrrolo[2,3-b]pyridin-2-yl]-N-(propan-2-yl)benzenesulfonamide]	2000 to 5000 nM	162 to 165 °C
Cc1ccc2c(C#N)c(-c3ccc(S(=O)(=O)NC(C)C)cc3)n(CC3CC3)c2n1 [Cpd 5, 4-[3-cyano-1-(cyclopropylmethyl)-6-methyl-1H-pyrrolo[2,3-b]pyridin-2-yl]-N-(propan-2-yl)benzenesulfonamide]	< 500 nM	175 to 177 °C
CC(C)NS(=O)(=O)c1ccc(-c2c(C#N)c3cc(Cl)cnc3n2C2CCC2)cc1 [Cpd 6, 4-(5-chloro-3-cyano-1-cyclobutyl-1H-pyrrolo[2,3-b]pyridin-2-yl)-N-(propan-2-yl)benzenesulfonamide]	< 500 nM	172 to 175 °C
CC(C)NS(=O)(=O)c1ccc(-c2c(C#N)c3cccnc3n2C2CCC2)cc1 [Cpd 7, 4-(3-cyano-1-cyclobutyl-1H-pyrrolo[2,3-b]pyridin-2-yl)-N-(propan-2-yl)benzenesulfonamide]	500 to 2000 nM	198 to 200 °C
CC1(NS(=O)(=O)c2ccc(-c3c(C(N)=O)c4cc(Cl)cnc4n3C3CCC3)nc2)CC1 [Cpd 366, 5-chloro-1-cyclobutyl-2-{5-[(1-methylcyclopropyl)sulfamoyl]pyridin-2-yl}-1H-pyrrolo[2,3-b]pyridine-3-carboxamide]	< 500 nM	
C[C@H](NS(=O)(=O)c1cnc(-c2c(C(N)=O)c3cccnc3n2C2CCC2)nc1)C(F)(F)F [Cpd 367, 1-cyclobutyl-2-(5-{[(2S)-1,1,1-trifluoropropan-2-yl]sulfamoyl}pyrimidin-2-yl)-1H-pyrrolo[2,3-b]pyridine-3-carboxamide]	2000 to 5000 nM	
CC(C)(C)NS(=O)(=O)c1ccc(-c2c(C#N)c3cc(F)cnc3n2C2CCC2)cc1 [Cpd 369, N-tert-butyl-4-(3-cyano-1-cyclobutyl-5-fluoro-1H-pyrrolo[2,3-b]pyridin-2-yl)benzenesulfonamide]	500 to 2000 nM	
C[C@H](NS(=O)(=O)c1ccc(-c2c(C#N)c3cc(S(C)(=O)=O)cnc3n2C2CCC2)nc1)C(F)(F)F [Cpd 370, 6-[3-cyano-1-cyclobutyl-5-(methylsulfonyl)-1H-pyrrolo[2,3-b]pyridin-2-yl]-N-[(2S)-1,1,1-trifluoropropan-2-yl]pyridine-3-sulfonamide]	< 500 nM	
CC(C)(NS(=O)(=O)c1ccc(-c2c(C(N)=O)c3cc(C4CC4)cnc3n2C2CCC2)cc1)C(F)(F)F [Cpd 372, 1-cyclobutyl-5-cyclopropyl-2-{4-[(1,1,1-trifluoro-2-methylpropan-2-yl)sulfamoyl]phenyl}-1H-pyrrolo[2,3-b]pyridine-3-carboxamide]	< 500 nM	
NC(=O)c1c(-c2ccc(S(=O)(=O)NC3(C(F)(F)F)CC3)cn2)n(C2CCC2)c2ncc(C3CC3)cc12 [Cpd 374, 1-cyclobutyl-5-cyclopropyl-2-(5-{[1-(trifluoromethyl)cyclopropyl]sulfamoyl}pyridin-2-yl)-1H-pyrrolo[2,3-b]pyridine-3-carboxamide]	< 500 nM	
CC(C)(C)NS(=O)(=O)c1ccc(-c2c(C(N)=O)c3cc(C4CC4)cnc3n2C2CCC2)cc1 [Cpd 375, 2-[4-(tert-butylsulfamoyl)phenyl]-1-cyclobutyl-5-cyclopropyl-1H-pyrrolo[2,3-b]pyridine-3-carboxamide]	< 500 nM	
CCc1cnc2c(c1)c(C(N)=O)c(-c1ccc(S(=O)(=O)NC3(C(F)(F)F)CC3)cn1)n2C1CCC1 [Cpd 380, 1-cyclobutyl-5-ethyl-2-(5-{[1-(trifluoromethyl)cyclopropyl]sulfamoyl}pyridin-2-yl)-1H-pyrrolo[2,3-b]pyridine-3-carboxamide]	< 500 nM	
CCc1cnc2c(c1)c(C(N)=O)c(-c1ccc(S(=O)(=O)NC(C)(C)C)cc1)n2C1CCC1 [Cpd 381, 2-[4-(tert-butylsulfamoyl)phenyl]-1-cyclobutyl-5-ethyl-1H-pyrrolo[2,3-b]pyridine-3-carboxamide]	< 500 nM	
CCc1cnc2c(c1)c(C(N)=O)c(-c1ccc(S(=O)(=O)NC(C)(C)C)cn1)n2C1CCC1 [Cpd 382, 2-[5-(tert-butylsulfamoyl)pyridin-2-yl]-1-cyclobutyl-5-ethyl-1H-pyrrolo[2,3-b]pyridine-3-carboxamide]	500 to 2000 nM	
CSc1cnc2c(c1)c(C(=O)O)c(-c1ccc(S(=O)(=O)N[C@@H](C)C(F)(F)F)cn1)n2C1CCC1 [Cpd 386, 1-cyclobutyl-5-(methylsulfanyl)-2-(5-{[(2S)-1,1,1-trifluoropropan-2-yl]sulfamoyl}pyridin-2-yl)-1H-pyrrolo[2,3-b]pyridine-3-carboxylic acid]	500 to 2000 nM	
CSc1cnc2c(c1)c(C(N)=O)c(-c1ccc(S(=O)(=O)NC3(C(F)(F)F)CC3)cc1)n2C1CCC1 [Cpd 389, 1-cyclobutyl-5-(methylsulfanyl)-2-(4-{[1-(trifluoromethyl)cyclopropyl]sulfamoyl}phenyl)-1H-pyrrolo[2,3-b]pyridine-3-carboxamide]	< 500 nM	
CSc1cnc2c(c1)c(C(=O)O)c(-c1ccc(S(=O)(=O)NC3(C(F)(F)F)CC3)cc1)n2C1CCC1 [Cpd 390, 1-cyclobutyl-5-(methylsulfanyl)-2-(4-{[1-(trifluoromethyl)cyclopropyl]sulfamoyl}phenyl)-1H-pyrrolo[2,3-b]pyridine-3-carboxylic acid]	500 to 2000 nM	
CNc1cnc2c(c1)c(C#N)c(-c1ccc(S(=O)(=O)N[C@@H](C)C(F)(F)F)cn1)n2C1CCC1 [Cpd 394, 6-[3-cyano-1-cyclobutyl-5-(methylamino)-1H-pyrrolo[2,3-b]pyridin-2-yl]-N-[(2S)-1,1,1-trifluoropropan-2-yl]pyridine-3-sulfonamide]	< 500 nM	
N#Cc1c(-c2ccc(S(=O)(=O)NC3(C(F)(F)F)CC3)cc2)n(C2CCC2)c2ncc(C(F)(F)F)cc12 [Cpd 397, 4-[3-cyano-1-cyclobutyl-5-(trifluoromethyl)-1H-pyrrolo[2,3-b]pyridin-2-yl]-N-[1-(trifluoromethyl)cyclopropyl]benzenesulfonamide]	< 500 nM	
COc1cnc2c(c1)c(C(N)=O)c(-c1ccc(S(=O)(=O)NC3(C)CC3)cn1)n2C1CCCC1 [Cpd 410, 1-cyclopentyl-5-methoxy-2-{5-[(1-methylcyclopropyl)sulfamoyl]pyridin-2-yl}-1H-pyrrolo[2,3-b]pyridine-3-carboxamide]	500 to 2000 nM	
CC(C)(C)S(=O)(=O)Nc1ccc(-c2c(C(N)=O)c3cc(C(F)(F)F)cnc3n2C2CCCCC2)cc1 [Cpd 445, 2-{4-[(tert-butylsulfonyl)amino]phenyl}-1-cyclohexyl-5-(trifluoromethyl)-1H-pyrrolo[2,3-b]pyridine-3-carboxamide]	< 500 nM	
[C-]#[N+]c1cnc(-n2c(-c3ccc(S(=O)(=O)N[C@@H](C)C(F)(F)F)cn3)c(C#N)c3cc(C)cnc32)s1 [Cpd 451, 6-[3-cyano-1-(5-isocyano-1,3-thiazol-2-yl)-5-methyl-1H-pyrrolo[2,3-b]pyridin-2-yl]-N-[(2S)-1,1,1-trifluoropropan-2-yl]pyridine-3-sulfonamide]	< 500 nM	
CC(C)(NS(=O)(=O)c1ccc(-c2c(C#N)c3cc(C(F)F)cnc3n2C2CCC2)nc1)C(F)(F)F [Cpd 456, 6-[3-cyano-1-cyclobutyl-5-(difluoromethyl)-1H-pyrrolo[2,3-b]pyridin-2-yl]-N-(1,1,1-trifluoro-2-methylpropan-2-yl)pyridine-3-sulfonamide]	< 500 nM	
N#Cc1c(-c2ccc(S(=O)(=O)NC3(C(F)(F)F)CC3)cn2)n(C2CCC2)c2ncc(C(F)F)cc12 [Cpd 457, 6-[3-cyano-1-cyclobutyl-5-(difluoromethyl)-1H-pyrrolo[2,3-b]pyridin-2-yl]-N-[1-(trifluoromethyl)cyclopropyl]pyridine-3-sulfonamide]	< 500 nM	
